Experimental data reported in the NIST ThermoML archive (doi:10.1016/j.jct.2013.05.019).
Numbers after ± are expanded uncertainties.

Settings: Liquid; for viscosity: Falling or rolling sphere viscometry; for mass density: Vibrating tube method; for electrical conductivity: Alternating current cell with electrodes

Compound | viscosity (293.15 K, 101 kPa) [mPa·s] | mass density (293.15 K, 101 kPa) [kg/m3] | electrical conductivity (298.15 K, 101 kPa) [S/m] | viscosity (298.15 K, 101 kPa) [mPa·s] | mass density (298.15 K, 101 kPa) [kg/m3] | viscosity (303.15 K, 101 kPa) [mPa·s] | mass density (303.15 K, 101 kPa) [kg/m3] | viscosity (308.15 K, 101 kPa) [mPa·s] | mass density (308.15 K, 101 kPa) [kg/m3] | viscosity (313.15 K, 101 kPa) [mPa·s] | mass density (313.15 K, 101 kPa) [kg/m3] | viscosity (293.15 K, 101.33 kPa) [mPa·s] | viscosity (298.15 K, 101.33 kPa) [mPa·s] | viscosity (303.15 K, 101.33 kPa) [mPa·s] | viscosity (308.15 K, 101.33 kPa) [mPa·s] | viscosity (313.15 K, 101.33 kPa) [mPa·s]
CC(=O)O.CCCCN [butylammonium acetate] | 771.69 ± 71 | 959.61 ± 0.23 | 0.021 ± 0.001 | 546.35 ± 44 | 956.44 ± 0.23 | 397.17 ± 28 | 953.33 ± 0.23 | 294.59 ± 18 | 950.15 ± 0.23 | 222.24 ± 11 | 946.98 ± 0.23 |  |  |  |  | 
CCCC[NH3+].O=[N+]([O-])[O-] [n-butylammonium nitrate] | 111.35 ± 3.6 | 1104.68 ± 0.31 | 0.867 ± 0.017 | 89.95 ± 2.5 | 1101.52 ± 0.31 | 73.04 ± 1.8 | 1098.38 ± 0.31 | 60.25 ± 1.3 | 1095.26 ± 0.31 | 50.12 ± 1.1 | 1092.17 ± 0.3 |  |  |  |  | 
O [water] |  |  |  |  |  |  |  |  |  |  |  | 1.002 ± 0.021 | 0.89 ± 0.019 | 0.797 ± 0.017 | 0.718 ± 0.015 | 0.651 ± 0.014
